This is an account of results in ChEMBL document CHEMBL1133627, “4-Anilino-6,7-dialkoxyquinoline-3-carbonitrile inhibitors of epidermal growth factor receptor kinase and their bioisosteric relationship to the 4-anilino-6,7-dialkoxyquinazoline inhibitors” (J Med Chem, 2000).

pIC50: −log10 of the molar value.

For one experiment, the system named is SK-BR-3. The experiment can be described thus: Concentration needed to inhibit 50% growth of human SKBr3 (breast carcinoma) cell lines. The format is functional, cell-based.
Experiment [1] deals with Epidermal growth factor receptor and ErbB2 (HER1 and HER2) (Homo sapiens, UniProt P04626+P00533). Kind of experiment: Concentration needed to inhibit the autophosphorylation of the cytoplasmic domain of Epidermal growth factor receptor using DELFIA/time-resolved fluorimetry. The experiment is classed as protein assay.
A further experiment has as its system SW-620. The experiment can be described thus: Concentration needed to inhibit 50% growth of human SW620 (colon carcinoma) cell lines. The experiment is classed as functional, cell-based.
The test system of a further experiment is A-431. The experiment can be described thus: Concentration needed to inhibit 50% growth of the human A431 (epidermoid carcinoma) cell lines. The format is functional, cell-based.

For orientation: pIC50 means the IC50 on a negative log10 scale, so that one unit is a factor of ten. A low value points to a large IC50. A word on the IC50: it is the concentration needed to halve the response being measured. Read a low IC50 as greater potency. As for `CCOc1cc2c(Nc3cccc(Br)c3)c(C#N)cnc2cc1OC`, the pIC50 with SK-BR-3 is 6.19; in the experiment on SW-620 it was 5.37; in the experiment with A-431 it was 6.24. The concentration for half-maximal inhibition (IC50) in experiment [1] came to 21.19 µM.
On the same counts, the results for `COc1cc2ncc(C#N)c(Nc3cccc(Cl)c3)c2cc1OC` are 5.75, 5.15, 6.23 and 0.18 µM.
As to `COc1cc2ncc(C#N)c(Nc3ccc(Br)cc3F)c2cc1OC.Cl`, the pIC50 is 5.77 with SK-BR-3, 4.72 in the experiment with SW-620 and 6.05 with A-431. The compound also returned a half-maximal inhibitory concentration (IC50) in experiment [1] above 91.2 µM.
On the same counts, the results for `COCOc1cc2ncc(C#N)c(Nc3cccc(Br)c3)c2cc1OCOC` are 4.85, 5.01, 4.84 and 6.75 µM.
On the same counts, the results for `CCOc1cc2ncc(C#N)c(Nc3ccc(F)c(Cl)c3)c2cc1OCC` are 6.31, 6.31, 6.57 and 0.98 µM.
On the same counts, the results for `COc1cc2ncc(C#N)c(Nc3cccc(O)c3)c2cc1OC` are 6.02, 5.11, 5.82 and 6.36 µM.
`COc1cc2ncc(C#N)c(Nc3ccc(C)c(Cl)c3)c2cc1OC`: the pIC50 is 6.03 in the experiment on SK-BR-3, 4.60 in the experiment on SW-620 and 6.03 in the experiment with A-431. In experiment [1], this compound returned a half-maximal inhibitory concentration (IC50) of 1.48 µM.
Take `COc1cc2ncc(C#N)c(Nc3cccc(SC)c3)c2cc1OC.Cl`: the negative-log IC50 (pIC50) in the experiment on SK-BR-3 was 5.81; in the experiment on SW-620, 5.30; in the experiment with A-431, 5.84. Besides, the IC50 in experiment [1] was 0.76 µM.
On the same counts, the results for `CCOc1cc2ncc(C#N)c(Nc3cccc(Br)c3)c2cc1OCC` are 7.05, 6.80, 6.96 and 0.42 µM.
On the same counts, the results for `COc1cc2ncc(C#N)c(Nc3ccc(O)c(Cl)c3)c2cc1OC` are 5.89, 5.56, 5.52 and 9.04 µM.
On the same counts, the results for `COc1cc2c(C#N)cnc(Nc3cccc(Cl)c3)c2cc1OC` are 4.56, 4.19, 4.58 and 88.29 µM.
Turning to `COc1cc2ncc(C#N)c(Nc3ccc(C)c(Br)c3)c2cc1OC`, the pIC50 is 6.26 in the experiment on SK-BR-3, 5.54 in the experiment on SW-620 and 6.12 in the experiment with A-431. For the same compound, in experiment [1], the IC50 is 1.79 µM.
On the same counts, the results for `COc1cc2ncc(C#N)c(Nc3cc(Cl)c(O)c(Cl)c3)c2cc1OC` are 5.70, 5.46, 5.50 and 3.15 µM.
For `CCOc1cc2ncc(C#N)c(Nc3cccc(Br)c3)c2cc1OC`, the pIC50 is 7.22 in the experiment on SK-BR-3, 7.22 in the experiment with SW-620 and 6.85 with A-431. Besides, the IC50 in experiment [1] was 33.02 µM.
For the compound `COc1cc2ncc(C#N)c(Nc3cccc(Br)c3C)c2cc1OC`, the negative-log IC50 (pIC50) with SK-BR-3 was 6.41; with SW-620, 4.93; with A-431, 5.44. The compound further registered an IC50 in experiment [1] of 0.84 µM.
With `COc1cc2ncc(C#N)c(Nc3cccc(Br)c3)c2cc1OC`, the negative-log IC50 (pIC50) with SK-BR-3 was 6.32; in the experiment with SW-620 it was 5.43; in the experiment on A-431 it was 6.11.
On to `COc1cc2ncc(C#N)c(Nc3cccc(C(C)C)c3)c2cc1OC`, for which the figures for the pIC50 in the experiment on SK-BR-3, with SW-620 and in the experiment with A-431 were 5.17, 5.42 and 5.36, respectively. This compound also displayed an IC50 in experiment [1] of 62.32 µM.
On the same counts, the results for `COc1cc2ncc(C#N)c(Nc3cccc(C#N)c3)c2cc1OC` are 4.59, 4.36, 5.45 and 14.18 µM.
On to `CCOC(=O)c1cnc2cc(OC)c(OC)cc2c1Nc1cccc(Br)c1`, for which the values for the pIC50 in the experiment with SK-BR-3, in the experiment on SW-620 and in the experiment with A-431 were 5.21, 5.16 and 5.52, respectively. Besides, in experiment [1], the half-inhibitory concentration (IC50) is above 81.3 µM.
On the same counts, the results for `COc1cc2ncc(C#N)c(Nc3ccc(Cl)cc3F)c2cc1OC` are 6.27, 5.27, 6.09 and 13.85 µM.
On the same counts, the results for `N#Cc1cnc2cc3c(cc2c1Nc1cccc(Br)c1)OCCO3` are 6.57, 6.37, 6.38 and above 104.7 µM.
On the same counts, the results for `COc1cc2ncc(C#N)c(Nc3ccc(Br)c(C)c3)c2cc1OC` are 5.86, 5.51, 6.14 and 0.62 µM.
For the compound `COc1cc2ncc(C#N)c(Nc3ccccc3Br)c2cc1OC`, the negative-log IC50 (pIC50) was 6.10 in the experiment with SK-BR-3, 4.77 with SW-620 and 4.68 with A-431. In experiment [1], the 50% inhibitory concentration (IC50) came to 4.18 µM.
Regarding `COc1cc2ncc(C=O)c(Nc3cccc(Br)c3)c2cc1OC`, the negative logarithm of the IC50 (pIC50) in the experiment with SK-BR-3 was 5.53; in the experiment on SW-620, 5.28; with A-431 it was 5.71. Moreover, in experiment [1], the concentration for half-maximal inhibition (IC50) was 3.37 µM.
On to `COc1cc2ncc(C(=O)O)c(Nc3cccc(Br)c3)c2cc1OC`, for which the pIC50 with SK-BR-3 is 4.45; in the experiment on SW-620, 4.27; with A-431, 4.74. Moreover, the IC50 in experiment [1] was 34.22 µM.
Turning to `COc1cc2ncc(C#N)c(Nc3cccc(C(N)=O)c3)c2cc1OC`, the figures for the negative logarithm of the IC50 (pIC50) with SK-BR-3, in the experiment on SW-620 and in the experiment on A-431 were 5.07, 5.20 and 5.23, respectively. The same compound had a 50% inhibitory concentration (IC50) in experiment [1] of 7.69 µM.
With `COc1cc2ncc(CO)c(Nc3cccc(Br)c3)c2cc1OC`, the pIC50 with SK-BR-3 is 4.81; in the experiment on SW-620, 4.64; in the experiment on A-431, 5.10. In experiment [1], this compound yielded an IC50 above 102.2 µM.
On the same counts, the results for `COc1cc2ncc(C#N)c(Nc3cccc(N)c3)c2cc1OC` are 5.61, 4.84, 5.18 and 0.82 µM.
`COc1cc2ncc(C#N)c(Nc3ccc(F)cc3)c2cc1OC`: the negative-log IC50 (pIC50) in the experiment with SK-BR-3 is 6.13; in the experiment with SW-620 it was 5.54; in the experiment with A-431, 5.84. Further, the IC50 in experiment [1] came to 47.94 µM.
On the same counts, the results for `COc1cc2ncc(C#N)c(Nc3cccc(NC(C)=O)c3)c2cc1OC` are 5.81, 5.56, 5.58 and 69.4 µM.
As to `N#Cc1cnc2cc3c(cc2c1Nc1cccc(Br)c1)OCCCO3`, the pIC50 with SK-BR-3 was 5.29; in the experiment with SW-620 it was 5.54; in the experiment with A-431, 5.68. The compound also gave an IC50 in experiment [1] of 5.15 µM.
